From patent US20050004225A1, “Oxidoreductase inhibitors and methods of screening and using thereof” (priority 2003, published 2005)
Like-named read-outs stand apart in the source and are kept apart here.

Experiments:
human aldose reductase = biological target: T1, human aldose reductase (Homo sapiens, UniProt P15121); assay: Inhibition of recombinant human aldose reductase, DL-glyceraldehyde reduction, NADPH at 340 nm; type: biochemical
T1 construct: His-tag (cleaved yes); made in house; host or cells: E. coli BL21
Procedure: DL Glyceraldehyde, NADPH, and Bezafibrate (2-[4-[2-(4-chlorobenzamiso)ethyl]phenoxy]-2-methyl-propionic acid) were purchased from Sigma-Aldrich. All other chemicals used were of the highest purity available.
Human aldose reductase was recombinantly expressed in E. coli BL21, purified, and used for testing the efficacy of Bezafibrate in regulating aldehyde reduction reaction. […] Over night grown culture was inoculated (25 ml/l) into four 3 l flasks each containing 11 LB supplemented with ampicillin (50 μg/ml) at 37° C. with shaking (250 rpm) for 3 to 4 h until an attenuance (A600) of ˜0.7. Isopropyl β-D-thiogalactoside (IPTG, 1 mM) was added to the culture and was further incubated for 3 h to induce the expression of human aldose reductase gene. […] Cell pellets were resuspended in 80 ml of Talon extraction/wash buffer, (pH 7.9, Clonetech), and lysed by sonication with ten pulses (30 s each) and centrifuged at 12 000 g. […] The slurry was then transferred into a column allowing the matrix to pack and the supernatant to pass through at a flow rate of […]. The column was washed with 50 ml of Talon extraction/wash buffer, and the enzyme was eluted with 50 ml of Talon elution buffer. The eluted protein was dialyzed overnight using Spectra/Por 5-8 kDa MWCO at 4° C. in 50 mM sodium phosphate buffer (pH 7.0) containing 1 mM 2-mercaptoethanol. His-tag from the dialyzed protein was removed using thrombin cleavage kit (Novagen) by adding 1 μl of thrombin to 4 mg of protein and incubating overnight at room temperature. The purity of the protein at each stage of purification was assessed by SDS PAGE, and staining the gels with Coomassie Blue.
Activity with various concentrations of DL glyceraldehyde in the absence and, in the presence of various concentrations of Bezafibrate was determined by monitoring the change in NADPH concentration at room temperature 28±2° C. in a Beckman DU600 model spectrophotometer by measuring the absorbance at 340 nm, in 0.01 M sodium phosphate buffer (pH 6.2). Kinetic parameters were obtained from initial-rate activity measurements, with substrate concentrations of 0.05 mM to 10 mM. Each individual rate measurement was done in duplicate. At least three independent determinations were performed for each kinetic constant. Values were calculated using Sigmaplot Ver 8.0 (SPSS Inc.) using a non-linear Marquardt's regression algorithm that computes the coefficients (parameters) of the independent variable(s) that give the “best fit” between the equation and the data. Inhibition-constant (Ki) and, the IC50 values for bezofibrate was calculated from the secondary plot of slope values from the double-reciprocal plot versus inhibitor concentration and from the plot of rate of reaction versus inhibitor concentration respectively.
The initial rates in the presence of Bezafibrate were analyzed by using equation 1: v=Vmax/((1+Km/S)*(1+I/Ki)/(1+I*beta/Ki)) (1) where, v=rate of reaction, Vmax=maximum initial velocity for the uninhibited reaction, Km=Michaelis constant in the absence of inhibitor, Ki=inhibition constant and beta=the rate constant when enzyme substrate complex breaks down to Enzyme and Product.

rat aldose reductase = rat aldose reductase (Rattus norvegicus, UniProt P07943); settings: cited from earlier work
[1] = tested on: HeLa cervical carcinoma cells; settings: cited from earlier work
[2] = biological target: T2, rat lens aldose reductase (Rattus norvegicus, UniProt P07943); settings: cited from earlier work
T2 construct: host or cells: rat lens (as named)

hepatoma cells = settings: in the presence of 3-deoxyglucosone and glyceraldehydes; cited from earlier work
[3] = tested on: isolated rabbit cardiac myocytes; assay: Cellular metabolism of adenine propenal in isolated cardiac myocytes (HPLC, ESI+/MS); type: cell-based; settings: 10 μM adenine propenal
Procedure: (§1) The cellular metabolism of base propenals was examined in isolated rabbit cardiac myocytes and COS-7 cells. The myocytes from rabbit ventricle were isolated as described in (46) and the COS-7 cells were obtained from ATCC. For metabolic studies, the cells were incubated with 10 μM of adenine propenal in Hepes-Ringer's buffer, pH 7.4. After 30 min of incubation, the medium was removed, and the adenine propenal and metabolites in the medium were separated by HPLC. […] To establish the structure of the glutathione conjugate peak I of the metabolites was injected into ESI^+/MS.
(§2) To probe the role of AR further, whether upregulation of AR would enhance the reductive metabolism of adenine propenal was examined. To enhance the expression of AR, the COS-7 cells were transfected with AR cDNA using lipofectamine.

COS-7 cells [4] = assay: Cellular metabolism of adenine propenal in COS-7 cells (HPLC, ESI+/MS); type: cell-based; settings: 10 μM adenine propenal; for reduction of the glutathione conjugate of adenine propenal in the presence of AR inhibitor: COS-7 cells
Procedure: as §1, §2
To examine changes in metabolism, the cells transfected with AR cDNA and the empty vector were incubated with 10 μM adenine propenal as described before. After 30 min of incubation, the medium was collected and separated by HPLC.

[5] = tested on: B16 melanoma-induced cachexia; settings: cited from earlier work; for B16 melanoma-induced cachexia: mice
[6] = tested on: murine adenocarcinoma colon26-induced cachexia; settings: cited from earlier work
human monocytes = human monocytes stimulated by LPS in vitro; cited from earlier work
interleukin-1 (IL-1) = settings: mice; cited from earlier work
COS-7 cells [7] = assay: Toxicity of adenine propenal to COS-7 cells, MTT assay; type: cell-based; settings: 100 μM adenine propenal, pre-incubated with 100 μM sorbinil
[8] = saturating substrate (10 mM DL-glyceraldehyde), read-out: IC50 value
[9] = Table I, recombinant human AR, reduction of DL-glyceraldehyde, read-out: K1
[10] = reduction of glyceraldehyde, read-out: Ki value

CC(C)(Oc1ccc(CCNC(=O)c2ccc(Cl)cc2)cc1)C(=O)O [Bezafibrate, 2-[4-[2-(4-chlorobenzamiso)ethyl]phenoxy]-2-methyl-propionic acid]
Ki (human aldose reductase; apparent noncompetitive inhibition constant, read-out: Ki value, unit inferred): 2 µM
IC50 (human aldose reductase; [8]): 3.8 µM

COc1cccc2c1C(=O)c1c(O)c3c(c(O)c1C2=O)C[C@@](O)(C(=O)CO)C[C@@H]3O[C@H]1C[C@H](N)[C@H](O)[C@H](C)O1 [Doxorubicin]
IC50 (human aldose reductase): 0.2 µM
Ki (human aldose reductase): 0.24 ± 0.02 µM

Cc1ccc(C)c(OCCCC(C)(C)C(=O)O)c1 [Gemfibrozil]
inhibitory effect on AR activity (in words) (human aldose reductase): inhibitory effect
IC50 (human aldose reductase; Table I, recombinant human AR, reduction of DL-glyceraldehyde, read-out: IC50): 6.5 ± 0.02 µM
Ki (human aldose reductase; [9]): 3.5 ± 0.79 µM
Ki (human aldose reductase; [10]): 2.74 ± 0.072 µM
IC50 (human aldose reductase; [8]): 3 ± 0.2 µM

COc1cccc2c1C(=O)c1c(O)c3c(c(O)c1C2=O)C[C@@](O)(C(C)=O)C[C@@H]3O[C@H]1C[C@H](N)[C@H](O)[C@H](C)O1 [Daunorubicin]
inhibitory effect on AR activity (in words) (human aldose reductase): inhibitory effects
Ki (human aldose reductase; [9]): 21.4 ± 7.67 µM
IC50 (human aldose reductase; [8]): 5 µM

CCOC(=O)C1=C(O)C(=O)N(Cc2ccccc2)C1 [EBPC, ethyl 1-benzyl-3-hydroxy-2(5H)-oxopyrrole-4-carboxylate]
inhibition of rat aldose reductase (rat aldose reductase): inhibits
cell death or proliferation, EBPC alone ([1]; 30 or 50 μM EBPC alone): no effect
percentage of dead cells ([1]; 24 h, doxorubicin or 30 μM cisplatin with 30 or 50 μM EBPC, vs untreated control): significant increase
extracellular signal-regulated kinase (ERK) activity ([1]; EBPC with chemotherapeutic drugs vs chemotherapeutic drugs): increased
cytotoxic effects of doxorubicin and cisplatin ([1]; HeLa cells, combination with EBPC): enhances

O=C(O)/C=C/c1ccccc1 [trans-cinnamic acid]
inhibition against rat AR [2]: weak inhibition

CC(/C=C1\SC(=S)N(CC(=O)O)C1=O)=C\c1ccccc1 [ONO-2235]
viability of hepatoma cells (hepatoma cells): decreased

O=[N+]([O-])NC1=NCCN1Cc1ccc(Cl)nc1 [Imidcloprid, N-(6-chloropyridin-3-ylmethyl)-2-nitroiminoimidazolidine]
IC50 (human aldose reductase; IC50 value, saturating substrate (10 mM DL-glyceraldehyde)): 1.5 µM
Ki (human aldose reductase; Ki value, reduction of glyceraldehyde): 12.6 µM

CC(=O)[C@]1(O)Cc2c(O)c3c(c(O)c2[C@@H](O[C@H]2C[C@H](N)[C@H](O)[C@H](C)O2)C1)C(=O)c1ccccc1C3=O [Idamycin]
inhibitory effect on AR activity (in words) (human aldose reductase): inhibitory effects
Ki (human aldose reductase; [9]): 20.5 ± 1.5 µM
IC50 (human aldose reductase; [8]): 5.6 µM

N#CC(=C(/N)Sc1ccccc1N)/C(C#N)=C(\N)Sc1ccccc1N [U0126]
EBPC-mediated enhancement of cell death ([1]; inhibition of ERK activation by MEK inhibitor): reversed

O=CC=Cc1ccccc1 [cinnamaldehyde]
inhibition against rat AR [2]: high potency

COc1ccc2c(C(=S)N(C)CC(=O)O)cccc2c1C(F)(F)F [tolrestat]
reduction of the glutathione conjugate of adenine propenal in the presence of AR inhibitor [3]: significantly prevented
reduction of the glutathione conjugate of adenine propenal in the presence of AR inhibitor (COS-7 cells [4]): significantly prevented

OC/C=C/c1ccccc1 [ainnnamyl alcohol]
inhibition against rat AR [2]: weak inhibition

O=C(O)Cc1nn(Cc2ccc(Br)cc2F)c(=O)c2ccccc12 [ponalrestat]
B16 melanoma-induced cachexia [5]: inhibited
survival ([6]; colon26 bearing mice): significantly prolonged
weight of body mass, epididymal fat, gastrocnemius muscle and carcass ([6]; colon26 bearing mice): attenuated the reduction
tumor growth ([6]; mice bearing colon26 subcutaneously): slightly stimulated
production of interleukin-1 (IL-1) (human monocytes): inhibited
LPS-induced increase of IL-1 in the blood (interleukin-1 (IL-1)): suppressed

O=C1NC(=O)[C@@]2(CCOc3ccc(F)cc32)N1 [Sorbinil]
inhibitory effect on AR activity (in words) (human aldose reductase): inhibitory effects
reduction of the glutathione conjugate of adenine propenal in the presence of AR inhibitor [3]: significantly prevented
adenine propenol peak (22 min) in AR cDNA-transfected cells (COS-7 cells [4]; AR-transfected COS-7 cells, 30 min, in the presence of sorbinil): completely abolished
reduction of the glutathione conjugate of adenine propenal in the presence of AR inhibitor (COS-7 cells [4]): significantly prevented
half life of cell viability after pre-incubation with AR inhibitor (COS-7 cells [7]): 6.1 ± 0.5 h

O=C(O)Cc1nn(Cc2nc3cc(C(F)(F)F)ccc3s2)c(=O)c2ccccc12 [Zopolrestat]
inhibitory effect on AR activity (in words) (human aldose reductase): inhibitory effects

C=CCc1ccc(O)c(OC)c1 [eugenol]
inhibition against rat AR [2]: weak inhibition

CCOP(=O)(Cc1ccc(C(=O)Nc2ccc(Br)cc2C#N)cc1)OCC [NO-1886]
weight of epididymal fat and whole body lipid ([5]; mice after intraperitoneal inoculation of B16): ameliorated
B16 melanoma-induced cachexia [5]: alleviated

CC(C)(Oc1ccc(Cl)cc1)C(=O)O [2-4-Chlorophenoxy clofibric acid]
inhibitory effect on AR activity (in words) (human aldose reductase): inhibitory effect
Ki (human aldose reductase; [10]): 1.04 ± 0.047 µM
IC50 (human aldose reductase; [8]): 1.2 ± 0.1 µM

COc1cccc2c1C(=O)c1c(O)c3c(c(O)c1C2=O)C[C@@](O)(C(=O)CO)C[C@@H]3O[C@H]1C[C@H](N)[C@@H](O)[C@H](C)O1 [Epirubicin]
IC50 (human aldose reductase): 5.5 µM
Ki (human aldose reductase): 77.6 µM

N#CC(=Cc1ccc(O)cc1)C(=O)O [α-cyano-4-hydroxycinnamic acid]
IC50 (human aldose reductase): 0.08 ± 0.005 µM
Ki (human aldose reductase): 0.085 µM
inhibition pattern with respect to reduction of glyceraldehyde, forward direction (human aldose reductase; recombinant hAR, Lineweaver-Burk plot): partial noncompetitive inhibition pattern
